Columns and labels:
Klebsiella pneumoniae [1] = test: Anti-Klebsiella pneumoniae activity in the adult mouse; assay type: in vivo; conditions: for anti-infectious activity with respect to Klebsiella pneumoniae (in words) / % Protection / Number of mice D + 3 (survivors) / Number of mice D + 5 (survivors) / Number of mice D + 10 (survivors): adult mouse; for anti-infectious activity with respect to Klebsiella pneumoniae (in words): summary of Table 3; for % Protection / Number of mice D + 3 (survivors) / Number of mice D + 5 (survivors) / Number of mice D + 10 (survivors): i.v.
Method: An experimental procedure was studied by CHEDID L. et coll. in "Proc. Natl. Acad. Sci. USA," 1977, 74: 2089, which permits the stimulating effect or not to be observed of substances studied with regard to immune defenses according as they protect or not the mice to which they are injected, the mice being inoculated by a dose of Klebsiella pneumoniae which results in the death of almost all of the controls.
(§1) The testing procedure is described in the article CHEDID L. et coll., Proc. Natl. Acad. Sci. USA, 74:2089.
(§2) It was shown that a dose of about 10^4 Klebsiella pneumoniae, injected by the intramuscular route in mice, results in the gradual death of a considerable part, if not all, of the animals in the week following the inoculation. After 8 days, the survival of the animals was definitely achieved.
The survival of groups of inoculated mice under the above conditions and treated by means of the products according to the invention was followed.
For these tests, hybrid mice (C57B1/6×AKR) FI bred at the PASTEUR INSTITUTE, from strains derived from the CNRS breeding station at ORLEANS, were used.
(§3) The infection by Klebsiella pneumoniae, a strain of the capsular 2, biotype d type, was done from a culture of 16 hours in a medium for pneumococci (No. 53515, PASTEUR INSTITUTE).
(§4) Various treatment conditions and tests have been studied. Thus, the treatment was carried out either 24 hours before the test, or 1 hour after the latter. The influence of the infecting dose and the mode of administration has also been studied. In particular, the protective properties of the products have been determined in the case of an injection of Klebsiella pneumoniae by the intravenous route, which corresponds to a severe infection.
(§5) In the majority of cases, the tests have been carried out on mice aged from 5 to 6 weeks. In one part of the tests, on the other hand, mice 7 days old were used, since the immune responses, in very young subjects are substantially different, and, on the whole, much more difficult to stimulate than those that are observed in adult subjects.
(§6) The products are administered in apyrogenic physiological solution in the proportion of 0.2 ml for intravenous administration to adult mice and 0.05 ml for sub-cutaneous injection to mice 7 days old. The controls received the solution alone.
(§7) The percentage protection indicated corresponds to the difference in percentages of survivors of the treated group with respect to the control group.

Klebsiella pneumoniae [2] = test: Anti-Klebsiella pneumoniae activity in the 7 day old mouse; assay type: in vivo; conditions: for % Protection / Number of mice D + 3 (survivors) / Number of mice D + 5 (survivors) / Number of mice D + 10 (survivors): 100 μg
Excerpt: as §1, §2, §3, §4, §5, §6, §7
The results reported in the following table represent the tests carried out in mice aged 7 days.

[3] = tested on: bovine serum albumin (BSA); test: Adjuvant character in the aqueous phase (anti-BSA antibody titer, passive hemagglutination); assay type: in vivo, Swiss mice; conditions: 100 μg adjuvant s.c. with 0.5 mg BSA in isotonic saline; booster day 30; six days after booster; maximum serum dilution agglutinating
Method: Groups of 8 Swiss mice aged two months received, by sub-cutaneous injection (SC), 0.5 mg of antigen constituted by bovine serum albumin (BSA) with 0.1 mg or without the tested substance in an isotonic saline solution. This high dose of antigen, because it is situated at the limit of the paralyzing dose with respect to the immunitary response, results, for this reason, in a weak or zero response to the antigen only in the controls: It constitutes therefore a severe criterion to establish the activity of an adjuvant substance. Thirty days later, the mice received, by the same administrative route, a booster containing 0.1 mg of the same antigen.
The antibody level was determined, six days after the booster, by passive hemagglutination using sheep's red blood corpuscles treated with formalin and covered with the antigen studied according to the method described by A. A. HIRATA and M. W. BRANDISS (J. Immunol., 100, 641-648, 1968).
The antibody titer, represented by the maximum serum dilution agglutinating a given amount of sheep corpuscles, reaches a maximum at the 36th day. The results obtained for various products according to the invention are shown in Table I. By way of comparison, the results obtained with MDP are indicated, on the one hand, and for PAP-MDP, on the other hand.

[4] = tested on: suprarenalectomized mouse; test: Toxicity, intravenous injection in the suprarenalectomized mouse; assay type: in vivo
Excerpt: The toxicity of the products according to the invention were studied by parenteral administration in mice. It was observed that the toxic doses were of an order of magnitude very much higher than that of the doses at which these products manifest their activity.
In addition, the activity/toxicity ratio is very favorable in the case of the pol-PAP-MDP, as appears when one considers the results of the tests reported below.

[5] = tested on: Limulus amoebocyte lysate; test: Limulus test (endotoxic type activity, gel formation)
Method: To show the absence of activity of the endotoxic type, products according to the invention were subjected to the Limulus test. For this purpose, 0.1 ml of the Limulus amoebocyte lysate preparation (marketed by the MALLINCKRODT Company, at Saint Louis, U.S.A.) was mixed with an equal volume of the tested product at various concentrations in solution in apyrogenic distilled water. The vessels used were also made apyrogenic by dry heating in the oven, at 180° C., for 2 hours.
After incubating the mixture for 20 minutes at 37° C. in tubes, the formation of gel characteristic of the presence of endotoxin was estimated.
A test is positive when the presence of a firm gel is observed which remains adherent to the bottom of the tube when the latter is inverted (technique described by Elin R. J. and Wolff S. M., J. Infect. Dis., 1973, 126: 349).

Listeria monocytogenes = test: Anti-Listeria monocytogenes activity in the adult mouse; assay type: in vivo; conditions: Listeria i.v. 10^3, treatment D-1, i.v.
Method: Under similar conditions to those of the tests of (4), the influence of the administration of the oligomer of p.aminophenyl-glycoside MDP was determined on the mortality of mice in which a dose of Listeria monocytogenes is administered, known for generating typically an infection of cellular type. As previously, the action of the product according to the invention was compared with that of Corynebacterium granulosum of which the anti-infectious properties are well known in this field. It was also determined, still by way of comparison, the action of Mur-NAc-L-Ala-D-isoGln (MDP).
The treatment of the mice and the inoculation were carried out intravenously. The injected products were in solution or suspension in 0.2 ml of apyrogenic physiological solution. The controls only received the solution.
The dose of Listeria administered was, in all the tests, 1.10^3 units.
The test whose results are given below have been carried out varying the doses of the tested products and the interval of time separating the treatment of inoculation of the Listeria monocytogenes (either 1, or 7 days). The number of surviving mice at the fifth and the tenth day following the inoculation was followed, and the percentage protection determined as for the preceding tests.

ovalbumin [6] = test: Adjuvant character in emulsion: serum antibodies specific for ovalbumin; assay type: in vivo, Hartley guinea pigs; conditions: emulsion with 1 mg ovalbumin, intradermal; product 50 μg in FIA; day 21; μg nitrogen precipitatable by antigen per ml serum
Method: (§8) The tests were carried out on batches of 6 male Hartley guinea pigs of 350 g. The administration was done by intradermal injection into the plantar pad of each of the rear paws. Ovalbumin (constituting the antigen) in the amount of 1 mg is prepared in 0.1 ml of an emulsion of saline isotonic solution, in an oily phase constituted either by the Freund incomplete adjuvant (FIA) or by the complete adjuvant (FCA) formed by the FIA to which is added 0.1 mg of whole Mycobacterium smegmatis cells. The compound according to the invention was administered in the amount of 0.05 mg added in the emulsion containing the FIA.
Twenty-one days after the injection, the animals were bled. On the collected serum, the content of specific antibodies of the ovalbumin was measured by precipitation of the antibody-antigen complex in the equivalence zone. The amount of protein nitrogen contained in the precipitate was estimated by the Folin method. These values express the amount, in micrograms, of nitrogen precipitatable by the antigen, per milliliter of the serum.

ovalbumin [7] = test: Adjuvant character in emulsion: delayed hypersensitivity cutaneous test; assay type: in vivo, Hartley guinea pigs; conditions: emulsion with 1 mg ovalbumin, intradermal; product 50 μg in FIA; challenge day 18, read 48 hours later
Method: as §8
Eighteen days after this immunization, possible delayed hypersensitivity reactions to the antigen were sought by injecting by the intradermal route 0.01 mg of ovalbumin in the side of the animals, and 48 hours later, the reaction of the point of injection was observed. The diameter in millimeters of the reaction thus-caused was measured.

[8] = infection i.m. 1.5 × 10^4, treatment +1 h, 10 μg
[9] = infection i.m. 1.5 × 10^4, treatment +1 h, 100 μg
[10] = infection i.m. 1.5 × 10^4, treatment -24 h, 10 μg
[11] = infection i.m. 1.5 × 10^4, treatment -24 h, 100 μg
[12] = infection i.v. 1.5 × 10^3, treatment -24 h, 10 μg
[13] = infection i.v. 1.5 × 10^3, treatment -24 h, 100 μg
[14] = infection i.v. 1.5 × 10^5, treatment -24 h, 100 μg
[15] = infection i.v. 2.5 × 10^2, treatment -24 h, s.c.
[16] = infection s.c. 10^3, treatment -24, s.c.

## polymer of β-D-p.aminophenyl-glycoside of Mur-NAc-L-Ala-D-isoGln [Pol (PAP-MDP)]
Klebsiella pneumoniae [1]
  anti-infectious activity with respect to Klebsiella pneumoniae (in words): anti-infectious
Klebsiella pneumoniae [1]; [8]
  % Protection: 50%
  Number of mice D + 3 (survivors): 16
  Number of mice D + 5 (survivors): 13
  Number of mice D + 10 (survivors): 11
Klebsiella pneumoniae [1]; [9]
  % Protection: 81%
  Number of mice D + 3 (survivors): 16
  Number of mice D + 5 (survivors): 16
  Number of mice D + 10 (survivors): 16
Klebsiella pneumoniae [1]; [10]
  % Protection: 58%
  Number of mice D + 3 (survivors): 24
  Number of mice D + 5 (survivors): 21
  Number of mice D + 10 (survivors): 19
Klebsiella pneumoniae [1]; [11]
  % Protection: 72%
  Number of mice D + 3 (survivors): 24
  Number of mice D + 5 (survivors): 24
  Number of mice D + 10 (survivors): 22
Klebsiella pneumoniae [1]; [12]
  % Protection: 16%
  Number of mice D + 3 (survivors): 22
  Number of mice D + 5 (survivors): 17
  Number of mice D + 10 (survivors): 9
Klebsiella pneumoniae [1]; [13]
  % Protection: 75%
  Number of mice D + 3 (survivors): 15
  Number of mice D + 5 (survivors): 14
  Number of mice D + 10 (survivors): 14
Klebsiella pneumoniae [1]; [14]
  % Protection: 12%
  Number of mice D + 3 (survivors): 12
  Number of mice D + 5 (survivors): 4
  Number of mice D + 10 (survivors): 3
Klebsiella pneumoniae [1]; as stated in the Limulus discussion
  active dose (anti-infectious activity): 10 μg per mouse
Klebsiella pneumoniae [2]; [15]
  % Protection: 41%
  Number of mice D + 3 (survivors): 14
  Number of mice D + 5 (survivors): 10
  Number of mice D + 10 (survivors): 9
Klebsiella pneumoniae [2]; [16]
  % Protection: 34%
  Number of mice D + 3 (survivors): 22
  Number of mice D + 5 (survivors): 19
  Number of mice D + 10 (survivors): 19
Klebsiella pneumoniae [2]; summary of Table 4
  anti-infectious activity with respect to Klebsiella pneumoniae (in words): notable anti-infectious activity
[3]
  Antibody titer: 50
[4]
  lethal dose 50: higher than 100 μg
  times less toxic than endotoxin extracted from E. coli: 5000 times
[5]
  times less active than the LPS on Limulus test: 500,000 times
[5]; 20 minutes at 37° C., firm gel
  concentration leading to a positive response (Limulus test): ~15000 ng/mL
Listeria monocytogenes; 10 μg
  % Protection: 29%
  Number of mice D + 5 (survivors): 10
  Number of mice D + 10 (survivors): 6
Listeria monocytogenes; 100 μg
  % Protection: 71%
  Number of mice D + 5 (survivors): 23
  Number of mice D + 10 (survivors): 19

## N^ε.N^ε' 'bis(N-acetyl-muramyl-L-alanyl-D-isoglutamine-L-lysine)-adipimidyl, dichlorohydrate [Adipimidyl-bis-MDP-Lys]
Ovalbumin [6]
  Serum antibodies: 6000 µg/mL
Ovalbumin [7]
  Cutaneous test diameter in mm: 17 mm
Klebsiella pneumoniae [1]; [11]
  % Protection: 44%
  Number of mice D + 3 (survivors): 27
  Number of mice D + 5 (survivors): 23
  Number of mice D + 10 (survivors): 22
[3]
  Antibody titer: 200

## CC(=O)N[C@H]1[C@H](Oc2ccc(N)cc2)O[C@H](CO)[C@@H](O)[C@@H]1O[C@H](C)C(=O)N[C@@H](C)C(=O)N[C@H](CCC(=O)O)C(N)=O [PAP-MDP, β-D-p.aminophenyl glycoside of N-acetyl-muramyl-L-alanyl-D-isoglutamine, reference compound]
Ovalbumin [6]
  Serum antibodies: 3480 µg/mL
Ovalbumin [7]
  Cutaneous test diameter in mm: 14.4 mm
Klebsiella pneumoniae [1]
  anti-infectious activity with respect to Klebsiella pneumoniae (in words): practically not
Klebsiella pneumoniae [1]; [11]
  % Protection: 19%
  Number of mice D + 3 (survivors): 28
  Number of mice D + 5 (survivors): 17
  Number of mice D + 10 (survivors): 11
Klebsiella pneumoniae [1]; [13]
  % Protection: 0%
  Number of mice D + 3 (survivors): 6
  Number of mice D + 5 (survivors): 2
  Number of mice D + 10 (survivors): 2
[3]
  Antibody titer: 11

Reference: patent US4461761A, “Oligomers of compounds of the muramyl-peptide type and medicaments containing them” (priority 1978, dated 1984)
